According to US10526345B2, “Compounds as GPR119 agonists” (Mankind Pharma Ltd., priority 2016, dated 2020):

Each compound was assayed against T1, hGPR119 (Homo sapiens, UniProt Q8TDV5) (assay: In vitro cyclic AMP assay (Cisbio dynamic 2 HTRF kit) in CHO-hGPR119 cells). Details: 1 h, cAMP, compound at 1 μM, 60 min, read-out: Induction (% induction at 1 μM).
T1 construct: expressed in transfected cells; host or cells: CHO
T1 sequence (Q8TDV5 1-335): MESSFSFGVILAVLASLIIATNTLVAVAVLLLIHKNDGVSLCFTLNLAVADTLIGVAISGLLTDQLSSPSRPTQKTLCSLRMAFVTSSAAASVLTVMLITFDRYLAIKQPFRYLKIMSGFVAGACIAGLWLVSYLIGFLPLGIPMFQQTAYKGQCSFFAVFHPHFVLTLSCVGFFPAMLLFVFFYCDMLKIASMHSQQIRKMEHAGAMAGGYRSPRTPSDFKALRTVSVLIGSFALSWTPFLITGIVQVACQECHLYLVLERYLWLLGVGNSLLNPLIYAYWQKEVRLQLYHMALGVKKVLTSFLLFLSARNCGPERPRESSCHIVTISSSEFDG
Type: cell-based
Experimental: cAMP measurements were done using Cisbio dynamic 2 HTRF kit according to the manufacturer's protocol. Briefly, CHO-hGPR119 cells were plated at a cell density of 5000 cells/well/5 μl into a white small volume 384 well plate. The final concentrations of IBMX and DMSO used were 1 mM and 0.5% respectively. Cells were treated with various concentrations of the test compound for 60 min at room temperature. Cells were lysed by buffer containing Anti-cAMP antibody and d2-cAMP reagents and incubated for 1 hour at room temperature. HTRF was measured at 337 nm excitation and emission wavelengths of 665 nm and 620 nm on a microplate reader (Flurostar, BMG Labtech). Graphpad prism software was utilized for EC50 determinations.

Compound | activation at 1 µM
CC(C)OC(=O)N1CC=C(CCOc2nc3ccc(-c4ccc(S(C)(=O)=O)cc4)nc3s2)CC1 [Compound 1034, isopropyl 4-(2-((5-(4-(methylsulfonyl)phenyl)thiazolo[5,4-b]pyridin-2-yl)oxy)ethyl)-5,6-dihydropyridine-1(2H)-carboxylate] | 0.3%
CC(C)c1noc(N2CC=C(CCOc3nc4ccc(-c5ccc(S(C)(=O)=O)cc5)nc4s3)CC2)n1 [Compound 1035, 3-isopropyl-5-(4-(2-((5-(4-(methylsulfonyl)phenyl)thiazolo[5,4-b]pyridin-2-yl)oxy)ethyl)-5,6-dihydropyridin-1(2H)-yl)-1,2,4-oxadiazole] | 2%
COCC(Oc1nc2ccc(-c3ccc(S(C)(=O)=O)cc3)nc2s1)C1CCN(c2nc(C(C)C)no2)CC1 (stereo not shown) [Compound 1036, 3-isopropyl-5-(4-(2-methoxy-1-((5-(4-(methylsulfonyl)phenyl)thiazolo[5,4-b]pyridin-2-yl)oxy)ethyl)piperidin-1-yl)-1,2,4-oxadiazole] | 47%
Cc1cc(-c2ccc(S(C)(=O)=O)cc2)nc2sc(OC(C)C3CCN(c4nc(C(C)C)no4)CC3)nc12 (stereo not shown) [Compound 1037, 3-isopropyl-5-(4-(1-((7-methyl-5-(4-(methylsulfonyl)phenyl)thiazolo[5,4-b]pyridin-2-yl)oxy)ethyl)piperidin-1-yl)-1,2,4-oxadiazole] | 18%
Cc1cc(-c2ccc(S(C)(=O)=O)cc2)nc2sc(OCC3CCN(c4nc(C(C)C)no4)CC3)nc12 [Compound 1038, 3-isopropyl-5-(4-(((7-methyl-5-(4-(methylsulfonyl)phenyl)thiazolo[5,4-b]pyridin-2-yl)oxy)methyl)piperidin-1-yl)-1,2,4-oxadiazole] | 11%
Cc1cc2nc(OC(C)C3CCN(c4nc(C(C)C)no4)CC3)sc2nc1-c1ccc(S(C)(=O)=O)cc1 (stereo not shown) [Compound 1039, 3-isopropyl-5-(4-(1-((6-methyl-5-(4-(methylsulfonyl)phenyl)thiazolo[5,4-b]pyridin-2-yl)oxy)ethyl)piperidin-1-yl)-1,2,4-oxadiazole] | 20%
CC(C)c1noc(N2CCC(C(Oc3nc4ccc(-c5ccc(S(C)(=O)=O)cc5)nc4s3)C3CC3)CC2)n1 (stereo not shown) [Compound 1040, 5-(4-(cyclopropyl((5-(4-(methylsulfonyl)phenyl)thiazolo[5,4-b]pyridin-2-yl)oxy)methyl)piperidin-1-yl)-3-isopropyl-1,2,4-oxadiazole] | 48%
CC(CC1CCN(c2nc(C(C)C)no2)CC1)Oc1nc2ccc(-c3ccc(S(C)(=O)=O)cc3)nc2s1 (stereo not shown) [Compound 1043, 3-isopropyl-5-(4-(2-((5-(4-(methylsulfonyl)phenyl)thiazolo[5,4-b]pyridin-2-yl)oxy)propyl)piperidin-1-yl)-1,2,4-oxadiazole] | 4%
CC(C=C1CCN(c2nc(C(C)C)no2)CC1)Oc1nc2ccc(-c3ccc(S(C)(=O)=O)cc3)nc2s1 (stereo not shown) [Compound 1044, 3-isopropyl-5-(4-(2-((5-(4-(methylsulfonyl)phenyl)thiazolo[5,4-b]pyridin-2-yl)oxy)propylidene)piperidin-1-yl)-1,2,4-oxadiazole] | 3%
CC(C)c1noc(N2CCC([C@H](C)Oc3nc4ccc(-c5ccc(C(=O)N(C)C)cc5)nc4s3)CC2)n1 [Compound 1045, (S)-4-(2-(1-(1-(3-isopropyl-1,2,4-oxadiazol-5-yl)piperidin-4-yl)ethoxy)thiazolo[5,4-b]pyridin-5-yl)-N,N-dimethylbenzamide] | 31%
CC(C)c1noc(N2CCC(C(C)Oc3nc4ccc(-c5ccc(C(=O)N(C)C)cc5F)nc4s3)CC2)n1 (stereo not shown) [Compound 1046, 3-fluoro-4-(2-(1-(1-(3-isopropyl-1,2,4-oxadiazol-5-yl)piperidin-4-yl)ethoxy)thiazolo[5,4-]pyridin-5-yl)-N,N-dimethylbenzamide] | 1%
CC(Oc1nc2ccc(-c3ccc(S(C)(=O)=O)cc3)nc2s1)C1CCN(c2nc(C3CC3)no2)CC1 (stereo not shown) [Compound 1048, 3-cyclopropyl-5-(4-(1-((5-(4-(methylsulfonyl)phenyl)thiazolo[5,4-b]pyridin-2-yl)oxy)ethyl)piperidin-1-yl)-1,2,4-oxadiazole] | 57%
CC(C)c1noc(N2CCC(C(C)Oc3nc4ccc(-c5ccc(C(=O)NC6CC6)cc5)nc4s3)CC2)n1 (stereo not shown) [Compound 1049, N-cyclopropyl-4-(2-(1-(1-(3-isopropyl-1,2,4-oxadiazol-5-yl)piperidin-4-yl)ethoxy)thiazolo[5,4-b]pyridin-5-yl)benzamide] | 14%
COCCNC(=O)c1ccc(-c2ccc3nc(OC(C)C4CCN(c5nc(C(C)C)no5)CC4)sc3n2)cc1 (stereo not shown) [Compound 1050, 4-(2-(1-(1-(3-isopropyl-1,2,4-oxadiazol-5-yl)piperidin-4-yl)ethoxy)thiaozlo[5,4-b]pyridin-5-yl)-N-(2-methoxyethyl)benzamide] | 16%
CC(C)c1noc(N2CCC(C(C)Oc3nc4ccc(-c5ccc(C(=O)N6CCOCC6)cc5)nc4s3)CC2)n1 (stereo not shown) [Compound 1051, (4-(2-(1-(1-(3-isopropyl-1,2,4-oxadiazol-5-yl)piperidin-4-yl)ethoxy)thiazolo[5,4-b]pyridin-5-yl)phenyl)(morpholino)methanone] | 24%
CC(C)c1noc(N2CCC(C(C)Oc3nc4ccc(-c5ccc(C(=O)N(C)C6CC6)cc5)nc4s3)CC2)n1 (stereo not shown) [Compound 1052, N-cyclopropyl-4-(2-(1-(1-(3-isopropyl-1,2,4-oxadiazol-5-yl)piperidin-4-yl)ethoxy)thiazolo[5,4-b]pyridin-5-yl)-N-methylbenzamide] | 13%
CCCc1cnc(N2CCC(C(C)Oc3nc4ccc(-c5ccc(S(C)(=O)=O)cc5)nc4s3)CC2)nc1 (stereo not shown) [Compound 1053, 5-(4-(methyslulfonyl)phenyl)-2-(1-(1-(5-propylpyrimidin-2-yl)piperidin-4-yl)ethoxy)thiazolo[5,4-b]pyridine] | 73%
CCc1cnc(N2CCC(C(C)Oc3nc4ccc(-c5ccc(S(C)(=O)=O)cc5)nc4s3)CC2)nc1 (stereo not shown) [Compound 1055, 2-(1-(1-(5-ethylpyrimidin-2-yl)piperidin-4-yl)ethoxy)-5-(4-(methylsulfonyl)phenyl)thiazolo[5,4-b]pyridine] | 76%
CC(C)OC(=O)N1CCC(C(C)Oc2nc3ccc(-c4ccc(S(C)(=O)=O)cc4)nc3s2)CC1 (stereo not shown) [Compound 1056, isopropyl 4-(1-((5-(4-(methylsulfonyl)phenyl)thiazolo[5,4-b]pyridin-2-yl)oxy)ethyl)piperidine-1-carboxylate] | 51%
CC(C)c1nc(N2CCC(C(C)Oc3nc4ccc(-c5ccc(S(C)(=O)=O)cc5)nc4s3)CC2)no1 (stereo not shown) [Compound 1058, 5-isopropyl-3-(4-(1-((5-(4-(methylsulfonyl)phenyl)thiazolo[5,4-b]pyridin-2-yl)oxy)ethyl)piperidin-1-yl)-1,2,4-oxadiazole] | 48%
CC(C)c1noc(N2CCC(Oc3nc4ccc(-c5ccc(S(C)(=O)=O)cc5)nc4s3)C(F)C2)n1 (stereo not shown) [Compound 1060, 5-(3-fluoro-4-((5-(4-(methylsulfonyl)phenyl)thiazolo[5,4-b]pyridin-2-yl)oxy)piperidin-1-yl)-3-isopropyl-1,2,4-oxadiazole] | 39%
CNS(=O)(=O)c1ccc(-c2ccc3nc(OC(C)C4CCN(c5nc(C(C)C)no5)CC4)sc3n2)cc1 (stereo not shown) [Compound 1061, 4-(2-(1-(1-(3-isopropyl-1,2,4-oxadiazol-5-yl)piperidin-4-yl)ethoxy)thiazolo[5,4-b]pyridin-5-yl)-N-methylbenzenesulfonamide] | 48%
CC(C)c1noc(N2CCC(C(C)Oc3nc4ccc(-c5ccc(S(=O)(=O)C6CC6)cc5)nc4s3)CC2)n1 (stereo not shown) [Compound 1063, 5-(4-(1-((5-(4-(cyclopropylsulfonyl)phenyl)thiazolo[5,4-b]pyridin-2-yl)oxy)ethyl)piperidin-1-yl)-3-isopropyl-1,2,4-oxadiazole] | 58%
CC(C)c1noc(N2CCC(C(C)Oc3nc4ccc(-c5ccc(C#N)cc5)nc4s3)CC2)n1 (stereo not shown) [Compound 1065, 4-(2-(1-(1-(3-isopropyl-1,2,4-oxadiazol-5-yl)piperidin-4-yl)ethoxy)thiazolo[5,4-b]pyridin-5-yl)benzonitrile] | 60%
COCCNS(=O)(=O)c1ccc(-c2ccc3nc(OC(C)C4CCN(c5nc(C(C)C)no5)CC4)sc3n2)cc1 (stereo not shown) [Compound 1066, 4-(2-(1-(1-(3-isopropyl-1,2,4-oxadiazol-5-yl)piperidin-4-yl)ethoxy)thiazolo[5,4-b]pyridin-5-yl)-N-(2-methoxyethyl)benzenesulfonamide] | 30%
COCCS(=O)(=O)c1ccc(-c2ccc3nc(OC(C)C4CCN(c5nc(C(C)C)no5)CC4)sc3n2)cc1 (stereo not shown) [Compound 1067, 3-isopropyl-5-(4-(1-((5-(4-((2-methoxyethyl)sulfonyl)phenyl)thiazolo[5,4-b]pyridin-2-yl)oxy)ethyl)piperidin-1-yl)-1,2,4-oxadiazole] | 36%
COCC[S+]([O-])c1ccc(-c2ccc3nc(OC(C)C4CCN(c5nc(C(C)C)no5)CC4)sc3n2)cc1 (stereo not shown) [Compound 1068, 3-isopropyl-5-(4-(1-((5-(4-((2-methoxyethyl)sulfinyl)phenyl)thiazolo[5,4-b]pyridin-2-yl)oxy)ethyl)piperidin-1-yl)-1,2,4-oxadiazole] | 13%

Same assay, conditions: cAMP

Compound | EC50
CCCc1cnc(N2CCC(C(C)Oc3nc4ccc(-c5ccc(S(C)(=O)=O)cc5)nc4s3)CC2)nc1 (stereo not shown) [Compound 1053, 5-(4-(methyslulfonyl)phenyl)-2-(1-(1-(5-propylpyrimidin-2-yl)piperidin-4-yl)ethoxy)thiazolo[5,4-b]pyridine] | 50 to 100 nM
